The record followed here is patent US20260158005A1, “A SALT-BASED ANTIFUNGAL POWDER PLATFORM FORMULATION FOR AEROSOLIZATION” (AGENCY FOR SCIENCE, TECHNOLOGY AND RESEARCH, priority 2021, published 2026).

Converted amounts (≈) assume the structure as drawn. Bounds are passed on as bounds.

Series [1] can be described thus: In vitro aerosol performance: Fine Particle Fraction (FPF) of the powder. The series is classed as physicochemical. To be noted: Table 5; optimized platform formulation (sodium sulfate 5% w/w, L-leucine 30% w/w, spray dry) vs unformulated. From the text: The responses were Fine Particle Fraction (FPF) and Anti-fungal Activity (MIC—Minimum Inhibitory Concentration) (Table 2), while the tested pathogen was Candida albicans.
The FPF was influenced mainly by the type of salt excipient (i.e., parameter A; Rank 1), with sodium sulfate as one of the preferred options. The optimum results for all the parameters are: A6, B1, C1, D3.
Letters A, B, C and D represent the experimental parameters and corresponding levels.

For the next series, the system named is Candida albicans. The series is described as follows: Antifungal activity (MIC, Minimum Inhibitory Concentration). The conditions noted are these: for MIC: Candida albicans, Table 5, optimized platform formulation vs unformulated. The series is classed as cell-based. From the text:
The responses were Fine Particle Fraction (FPF) and Anti-fungal Activity (MIC—Minimum Inhibitory Concentration) (Table 2), while the tested pathogen was Candida albicans. The antifungal activity was influenced mainly by the type of salt excipient as well (i.e. parameter A; Rank 1), with sodium sulfate as one of the preferred options. The optimum results for all the parameters are: A6, B1, C3, D3.

As usually defined, the MIC is the lowest concentration found to suppress growth. Read a high MIC as a need for much substance. Turning to `OC(Cn1cncn1)(Cn1cncn1)c1ccc(F)cc1F` [A, Fluconazole], the “FPF (%)” value in series [1] is on record as 2.6 ± 0.1%. The MIC against Candida albicans was found to be 0.25 µg/mL (≈ 0.816 µM). Also, the “improvement in antifungal activity” value in the series on Candida albicans (formulated using the platform technology vs unformulated) is “approximately 4 times”.

For `CCC(C)n1ncn(-c2ccc(N3CCN(c4ccc(OCC5COC(Cn6cncn6)(c6ccc(Cl)cc6Cl)O5)cc4)CC3)cc2)c1=O` (stereo not drawn) [B, Itraconazole], in the series with Candida albicans, the MIC was less than 0.03 µg/mL.

For `C[C@@H](c1ncncc1F)[C@](O)(Cn1cncn1)c1ccc(F)cc1F` [C, Voriconazole], the “FPF (%)” value in series [1] was 3.5 ± 0.3%. The MIC in the series with Candida albicans was less than 0.03 µg/mL.
